Consider six molecules from patent publication EP4273142A1 (Université de Bretagne Occidentale, priority 2022, dated 2023).

Series [1] is described as follows: Pd(II) complexation equilibria by UV spectrophotometry and potentiometry. Particulars: for log KML: stability constant of the Pd(II) complex, 25°C in 1.0 M KCl.
A short description of series [2]: Ligand protonation equilibria by potentiometric titration. In kind it is physicochemical. The following applies: 1.0 m kcl.
Series [3] can be described thus: Acid-mediated dissociation (cold inertness) followed by 1H NMR. In kind it is physicochemical. Particulars: Pd(II) complex, 5 M DCl (HCl 5M), 90°C, up to five months, 0.05M.
Series [4] can be described thus: EDTA challenge (transchelation) of 109Pd-labelled complexes, radio-HPLC. Particulars: pbs, 1000 eq edta, pH 7.
For series [5] the following is noted: cited from earlier work.
The conditions of series [6]: pbs, 1000 eq edta, 24 h, pH 7.
[7] abbreviates: Table 5, stepwise protonation constant in log units, read-out: H2L + H^+ ⇄H3L.
Setting [8] is: Table 5, stepwise protonation constant in log units, read-out: H3L + H^+ ⇄H4L.
Where [9] appears, read: Table 5, stepwise protonation constant in log units, read-out: HL + H^+ ⇄H2L.
The mark [10] stands for this setting: Table 5, stepwise protonation constant in log units, read-out: L + H^+ ⇄HL.
Where [11] appears, read: Table 6, overall constant in log units, read-out: L + H^+ ⇄HL.
[12] abbreviates: Table 5, complexation constant in log units, […], 1.0 M (K,H)Cl.
The mark [13] stands for this setting: Table 6, overall formation constant in log units, […], 1.0 M (K,H)Cl.

“Also recorded” adds a separate entry of the source. Like-named read-outs stand apart in the source and are kept apart here. Marks after values point to notes of the source that are not given here. A value given as a limit tells only on which side of the number the result lay.

With `O=C(O)c1cccc(CN2CCCNCCNCCCNCC2)n1` [TE1PA, 6-((1,4,8,11-tetraazacyclotetradecan-1-yl)methyl)picolinate], the “PdHL + H^+ ⇄PdH2L” value in series [1] (Table 5, stepwise protonation constant of the Pd(II) complex in log units, […], 1.0 M KCl) is 1.8(1). Also, the pKa is 3.05 in series [2] (setting [7]); 2.28 in series [2] (setting [8]); 1.69 in series [2] (Table 5, stepwise protonation constant in log units, read-out: H4L + H^+ ⇄H5L); 10.1 in series [2] (setting [9]); 11.1 in series [2] (setting [10]); 11.1 in series [2] (setting [11]).

For the molecule `C1CNCCNCCCNCCNC1.[Cl-].[Cl-].[Pd+2]` [[Pd(cyclam)]^2+, Palladium(II) 1,4,8,11-tetraazacyclotetradecane dichloride, reference compound], the Dissociation result in series [3] was “neither [Pd(cyclam)]^2+ nor [Pd(TE1PA)]^2+ present any significant dissociation; also recorded: HCl 5M, 90°C: Inert”. The degraded at 24 h in series [4] is 13%. The “log KML” value in series [5] (Pd(II) cyclam complex, 25°C in 0.1 M NaClO4, Harrington et al. 2005, value estimated) is reported as “log KML = 56,9”.

Take `c1ccc(CN2CCCNCCNCCCNCC2)cc1` [TE1Bn, reference compound]: the “Pd^2+ + L ⇄PdL” value in series [1] (setting [12]) and in series [1] (setting [13]) was more than 43 each time. For the same molecule, the “log KML” value in series [1] is more than 43. The pKa came out at 2.21 in series [2] (setting [7]); 2.89 in series [2] (setting [8]); 9.39 in series [2] (setting [9]); 11.3 in series [2] (setting [10]); 11.3 in series [2] (setting [11]).

Regarding “Palladium (II) 6-methylpicolinate-1,4,8,11-tetraazacyclotetradecane tetrachloropalladate [[Pd(TE1PA)]^2+]”, the “log KML” value in series [1] was “log KML = 38.4”. Besides, the demetallation in series [6] is 9% demetallation. In addition, the Dissociation result in series [3] is “neither [Pd(cyclam)]^2+ nor [Pd(TE1PA)]^2+ present any significant dissociation; also recorded: HCl, 5M, 90°C: Inert”.

Take `c1ccc(CN2CCCNCCNCCCNCC2)nc1` [TE1Py]: the “Pd^2+ + L ⇄PdL” value in series [1] (setting [12]) and in series [1] (setting [13]) was 42.6(1) each time. For the same molecule, in series [1] (Table 6, overall formation constant in log units, determined by UV spectrophotometry, pH 0-1.5, […], 1.0 M (K,H)Cl), the “Pd^2+ + L + H^+ ⇄PdHL” value is reported as 44.2(1) ^b. The “log KML” value in series [1] is listed as 42.6. Besides, the pKa was found to be 2.65 in series [2] (setting [7]); 2.83 in series [2] (setting [8]); 10.4 in series [2] (setting [9]); 11.5 in series [2] (setting [10]); 11.5 in series [2] (setting [11]).

As for `OCCN1CCCN(CCO)CCN(CCO)CCCN(CCO)CC1` [tetra(2-hydroxyethyl) cyclam], the “log KML” value in series [5] (Pd(II) complex, Hay et al. 1987) was 18.32.
